Measurements from patent US20240279202A1 (NURIX THERAPEUTICS, INC., priority 2021, published 2024).

Molecular target: T1, ITK (Homo sapiens, UniProt Q08881)
T1 sequence (Q08881 1-620): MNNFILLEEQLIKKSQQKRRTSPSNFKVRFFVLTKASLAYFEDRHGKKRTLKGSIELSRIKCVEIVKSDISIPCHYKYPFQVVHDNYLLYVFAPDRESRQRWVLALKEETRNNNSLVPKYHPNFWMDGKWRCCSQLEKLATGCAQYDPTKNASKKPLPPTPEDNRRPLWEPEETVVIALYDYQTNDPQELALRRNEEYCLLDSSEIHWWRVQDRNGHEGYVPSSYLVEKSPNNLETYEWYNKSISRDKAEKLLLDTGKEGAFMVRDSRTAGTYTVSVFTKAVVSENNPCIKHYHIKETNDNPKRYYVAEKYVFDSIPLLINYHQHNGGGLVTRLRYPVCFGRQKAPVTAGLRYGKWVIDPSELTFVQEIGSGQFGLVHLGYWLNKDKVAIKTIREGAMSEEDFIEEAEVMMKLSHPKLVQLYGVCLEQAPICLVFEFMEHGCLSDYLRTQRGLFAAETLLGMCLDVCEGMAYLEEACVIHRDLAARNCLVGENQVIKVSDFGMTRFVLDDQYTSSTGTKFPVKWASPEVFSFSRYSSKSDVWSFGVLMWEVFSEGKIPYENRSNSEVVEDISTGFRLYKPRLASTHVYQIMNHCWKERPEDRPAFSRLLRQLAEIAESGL
Experiment: ITK degradation HiBiT assay
Format: cell-based
Set-up: expressed in transfected cells; host or cells: Molt4 (ATCC CRL-1552), monoclonal clone 1C10, engineered to carry the HiBiT tag
Conditions: 4 hrs; for DC50: C-terminal HiBiT-tagged Molt4 cells; for Dmax: MOLT-4, C-terminal HiBiT-tagged Molt4 cells
Description: Itk Degradation Hibit Assay
Compounds provided herein were assayed in vitro with ITK HiBit cell lines. Compound dilution series (11-point, 5 fold dilutions in DMSO, columns 2-12 with replicate in rows A/B, C/D, E/F, G,H at 2000× the final required concentrations were prepared in 96 well plates (Falcon, cat. no. 353077). Column 1, rows A-H were control DMSO. The 2000× solutions ranged from 2 mM to 1.024 nM (final assay concentration range 1 μM to […]). The 2000× solutions were added to cells in […], for a final DMSO concentration of 0.5% and final assay compound concentration of 1×. For the cells, C-terminal HiBiT-tagged Molt4 cells (ATCC CRL-1552, monoclonal cell line clone 1C10) were plated at 1×10^6 cells/mL, 100 μL/well ([…]) in complete RPMI (10% FBS, 1% L-glutamine). The cells were incubated with compound 10 and compound 17 for 4 hrs at […]/6% CO2.
Following incubation, 100 μL of complete Nano-Glo HiBiT Lytic Detection Reagent (Nano-Glo HiBiT Lytic Buffer with 1:50 Nano-Glo HiBiT Lytic Substrate and 1:100 LgBiT Protein; Promega cat. no. N3040) was added. Cells were further incubated for 10 min at room temperature (RT). Luminescence units (LU) were read on an EnVision plate reader (Perkin Elmer, 0.1 sec per well). Percent ITK remaining per sample was calculated as follows: […]
Using Graphpad Prism, % ITK remaining values were plotted as a function of compound concentration. To determine DC50 and Dmax values, resulting curves were fit to the Prism curve-fitting equation “log(inhibitor) vs response—Variable slope (four parameters)” (reported best fit value IC50 used as DC50). ITK was measured with antibody-based MSD (Meso-Scale Discovery) assays shown below.

Row | DC50 [nM] | Dmax [%] | Compound
1 | 0.041 | 85 | C[C@@]12Cc3[nH]nc(C(=O)Nc4cnn(CC5CCN(CC6CCN(c7ccc(C8CCC(=O)NC8=O)cc7)CC6)CC5)c4)c3C[C@@H]1C2(F)F (mixture of isomers) [Compound 119, (4aS,5aR)-N-[1-({1-[(1-{4-[(3RS)-2,6-dioxopiperidin-3-yl]phenyl}piperidin-4-yl)methyl]piperidin-4-yl}methyl)-1H-pyrazol-4-yl]-5,5-difluoro-5a-methyl-1H,4H,4aH,5H,5aH,6H-cyclopropa[f]indazole-3-carboxamide]
2 | 8.5 | 84 | C[C@@]12Cc3[nH]nc(-c4cc5ccc(C(=O)N6CCN(CC7CCN(c8ccc(C9CCC(=O)NC9=O)cc8)CC7)CC6)cc5[nH]4)c3C[C@@H]1C2 (mixture of isomers) [Compound 225, (3RS)-3-(4-{4-[(4-{2-[(4aS,5aR)-5a-Methyl-1H,4H,4aH,5H,6H-cyclopropa[f]indazol-3-yl]-1H-indole-6-carbonyl}piperazin-1-yl)methyl]piperidin-1-yl}phenyl)piperidine-2,6-dione]
3 | 0.6 | 87 | C[C@@]12Cc3[nH]nc(-c4nc5ccc(C(=O)N6CCN(CC7CCN(c8ccc(C9CCC(=O)NC9=O)cc8)CC7)CC6)cc5[nH]4)c3C[C@@H]1C2(F)F (mixture of isomers) [Compound 227, (3RS)-3-(4-{4-[(4-{2-[(4aS,5aR)-5,5-difluoro-5a-methyl-1H,4H,4aH,6H-cyclopropa [f]indazol-3-yl]-3H-1,3-benzodiazole-5-carbonyl}piperazin-1-yl)methyl]piperidin-1-yl}phenyl)piperidine-2,6-dione]
4 | 63.1 | 63 | C[C@@]12Cc3[nH]nc(C(=O)Nc4cnn(C5CCC(CN6CCc7cc(C8CCC(=O)NC8=O)ccc7C6)CC5)c4)c3C[C@@H]1C2(F)F (mixture of isomers) [Compound 123, (4aS,5aR)-5,5-difluoro-5a-methyl-N-{1-[(lsr,4sr)-4-({6-[(3RS)-2,6-dioxopiperidin-3-yl]-1,2,3,4-tetrahydroisoquinolin-2-yl}methyl)cyclohexyl]-1H-pyrazol-4-yl}-1H,4H,4aH,5H,5aH,6H-cyclopropa[f]indazole-3-carboxamide]
5 | 1.4 | 91 | C[C@@]12Cc3[nH]nc(C(=O)Nc4cnn(C5CCC(CN6CCN(c7ccc(C8CCC(=O)NC8=O)cc7)CC6)CC5)c4)c3C[C@@H]1C2(F)F (mixture of isomers) [Compound 126, (4aS,5aR)-5,5-difluoro-5a-methyl-N-{1-[(1rs,4rs)-4-[(4-{4-[(3RS)-2,6-dioxopiperidin-3-yl]phenyl}piperazin-1-yl)methyl]cyclohexyl]-1H-pyrazol-4-yl}-1H,4H,4aH,5H,5aH,6H-cyclopropa[f]indazole-3-carboxamide]

Further lines, the compound ahead of its results:

Row | Compound | DC50 [nM] | Dmax [%]
6 | C[C@@]12Cc3[nH]nc(C(=O)Nc4cnn(C5CCN(CC6CCN(c7ccc(C8CCC(=O)NC8=O)cc7F)CC6)CC5)c4)c3C[C@@H]1C2(F)F (mixture of isomers) [Compound 112, (4aS,5aR)-N-(1-{1-[(1-{4-[(3RS)-2,6-dioxopiperidin-3-yl]-2-fluorophenyl}piperidin-4-yl)methyl]piperidin-4-yl}-1H-pyrazol-4-yl)-5,5-difluoro-5a-methyl-1H,4H,4aH,5H,5aH,6H-cyclopropa[f]indazole-3-carboxamide] | 0.14 | 87
7 | C[C@@]12Cc3[nH]nc(C(=O)Nc4cnn(C5CCN(CC6CCN(c7ccc(C8CCC(=O)NC8=O)cn7)CC6)CC5)c4)c3C[C@@H]1C2(F)F (mixture of isomers) [Compound 114, (4aS,5aR)-N-(1-{1-[(1-{5-[(3RS)-2,6-dioxopiperidin-3-yl]pyridin-2-yl}piperidin-4-yl)methyl]piperidin-4-yl}-1H-pyrazol-4-yl)-5,5-difluoro-5a-methyl-1H,4H,4aH,5H,5aH,6H-cyclopropa[f]indazole-3-carboxamide] | 0.002 | 87
8 | C[C@@]12Cc3[nH]nc(C(=O)Nc4cnn(C5CCN(CC6CCN(c7ncc(C8CCC(=O)NC8=O)cn7)CC6)CC5)c4)c3C[C@@H]1C2(F)F (mixture of isomers) [Compound 115, (4aS,5aR)-N-(1-{1-[(1-{5-[(3RS)-2,6-dioxopiperidin-3-yl]pyrimidin-2-yl}piperidin-4-yl)methyl]piperidin-4-yl}-1H-pyrazol-4-yl)-5,5-difluoro-5a-methyl-1H,4H,4aH,5H,5aH,6H-cyclopropa[f]indazole-3-carboxamide] | 0.391 | 84
9 | C[C@@]12Cc3[nH]nc(C(=O)Nc4cnn(CC5CCN(CC6CCN(c7ccc(C8CCC(=O)NC8=O)cn7)CC6)CC5)c4)c3C[C@@H]1C2(F)F (mixture of isomers) [Compound 120, (4aS,5aR)-N-[1-({1-[(1-{5-[(3RS)-2,6-dioxopiperidin-3-yl]pyridin-2-yl}piperidin-4-yl)methyl]piperidin-4-yl}methyl)-1H-pyrazol-4-yl]-5,5-difluoro-5a-methyl-1H,4H,4aH,5H,5aH,6H-cyclopropa[f]indazole-3-carboxamide] | 0.049 | 84
10 | COC[C@@]1(C)CCc2c(-c3cc4ccc(C(=O)N5CCN(CC6CCN(c7ccc(C8CCC(=O)NC8=O)cc7)CC6)CC5)cc4[nH]3)n[nH]c2C1 (mixture of isomers) [Compound 224, (3RS)-3-(4-{4-[(4-{2-[(6S)-6-(methoxymethyl)-6-methyl-1,4,5,7-tetrahydroindazol-3-yl]-1H-indole-6-carbonyl}piperazin-1-yl)methyl]piperidin-1-yl}phenyl)piperidine-2,6-dione] | 8.5 | 84
11 | CN(c1ccc2cc(-c3n[nH]c4c3C[C@@H]3C(F)(F)[C@]3(C)C4)[nH]c2c1)C(=O)[C@H]1C[C@@]2(CCN(c3ccc4c(c3)C(=O)N([C@H]3CCC(=O)NC3=O)C4=O)C2)C1 (racemic) [Compound 71a, (2r,4r)-N-[2-[(4aS,5aR)-5,5-difluoro-5a-methyl-1H,4H,4aH,6H-cyclopropa[f]indazol-3-yl]-1H-indol-6-yl]-6-[2-[(3RS)-2,6-dioxopiperidin-3-yl]-1,3-dioxoisoindol-5-yl]-N-methyl-6-azaspiro[3.4]octane-2-carboxamide] | – | 53
12 | C[C@@]12Cc3[nH]nc(C(=O)Nc4cnn(C5CCC(CN6CCN(c7ccc(C8CCC(=O)NC8=O)cn7)CC6)CC5)c4)c3C[C@@H]1C2(F)F (mixture of isomers) [Compound 125, (4aS,5aR)-5,5-difluoro-5a-methyl-N-{1-[(1rs,4rs)-4-[(4-{5-[(3RS)-2,6-dioxopiperidin-3-yl]pyridin-2-yl}piperazin-1-yl)methyl]cyclohexyl]-1H-pyrazol-4-yl}-1H,4H,4aH,5H,5aH,6H-cyclopropa[f]indazole-3-carboxamide] | 3.3 | 88
13 | C[C@@]12Cc3[nH]nc(C(=O)Nc4cnn([C@H]5CC[C@H](CN6CCN(c7ccc(C(=O)NC8CCC(=O)NC8=O)nc7)CC6)CC5)c4)c3C[C@@H]1C2(F)F (mixture of isomers) [Compound 127, N-[(3SR)-2,6-dioxopiperidin-3-yl]-5-(4-{[(1rs,4rs)-4-{4-[(4aS,5aR)-5,5-difluoro-5a-methyl-1H,4H,4aH,5H,5aH,6H-cyclopropa[f]indazole-3-amido]-1H-pyrazol-1-yl}cyclohexyl]methyl}piperazin-1-yl)pyridine-2-carboxamide] | 19.1 | 69
14 | C[C@H]1CN(C(=O)c2ccc3cc(-c4n[nH]c5c4CCC(C)(C)C5)[nH]c3c2)CCN1CC1CCN(c2ccc(C3CCC(=O)NC3=O)cc2)CC1 (mixture of isomers) [Compound 152] | – | 80
15 | C[C@H]1CN(C(=O)c2ccc3cc(-c4n[nH]c5c4C[C@@H]4C(F)(F)[C@]4(C)C5)[nH]c3c2)CCN1CC1CCN(c2ccc(C3CCC(=O)NC3=O)cc2)CC1 (mixture of isomers) [Compound 153] | – | 80
16 | C[C@@]12Cc3[nH]nc(-c4cc5ccc(C(=O)N6CC7CCC(C6)N7CC6CCN(c7ccc(C8CCC(=O)NC8=O)cc7)CC6)cc5[nH]4)c3C[C@@H]1C2(F)F (mixture of isomers) [Compound 154] | – | 76
